Test: Ability to inhibit calf thymus topoisomerase I when assayed in the cleavable complex formation

Row | SMILES | IC50 [nM]
1 | CC[C@@]1(O)C(=O)OCc2c1cc1n(c2=O)Cc2cc3cc4ncoc4cc3nc2-1 [7-ethyl-7-hydroxy-(7S)-7,8,11,13-tetrahydro-10H-[1,3]oxazolo[4,5-g]pyrano[3',4':6,7]indolizino[1,2-b]quinoline-8,11-dione] | 150
2 | CC[C@@]1(O)C(=O)OCc2c1cc1n(c2=O)Cc2cc3cc(N)c(O)cc3nc2-1 [(S)-9-Amino-4-ethyl-4,8-dihydroxy-1,12-dihydro-4H-2-oxa-6,12a-diaza-dibenzo[b,h]fluorene-3,13-dione] | 170

Reference: BindingDB's records for doi:10.1016/0960-894X(95)00360-6 (1995)
